Data as given in patent US20020127182A1, “Paramagnetic metal ion-based macrocylic magnetization transfer contrast agents and method of use” (Board of Regents, The University of Texas System, priority 2000, published 2002).

Tests used:
Type in all cases: physicochemical
[1] = Bound water lifetime τM^298 of Ln(1)^3+ complexes by fitting temperature dependent 17O NMR bound water line widths; exchange limit regime Δω•τM calculated; conditions: for τM (bound water lifetime): Ln(1)^3+ complexes, 298 K
Experimental: A first experiment, examined the life times at 298° K, τM^298, of water molecules bound to various lanthanide-macrocylic complexes of the present invention, and having the general formula, Ln(1)^3+, where the four pendent arms R, R′, R″ and R″′ are all ethyl-acetamidoacetate (i.e., LnDOTA-4AmCE^3+), as depicted below: [drawing 4]
(§1) Individual τM^298 values were obtained by fitting the temperature dependent ^17O NMR bound water line widths according to standard exchange theory. […] Because the bulk water ^17O resonance of Yb(1) solution was relatively narrow at all temperatures, no attempt was made to determine τM^298 for this complex based on the ^17O NMR line width data from bulk water. However, a fit to the bound-water ^1H NMR line width gave a τM^298 of 5.8 μs for Yb(1), consistent with the trend shown in FIG. 3. Moreover, ^1H NMR line width fitting gave very similar results for those systems for which the bound water is directly observable.
(§2) As further illustrated in Table 1, the proton chemical shifts of bound water in these lanthanide-macrocylic complexes, δ, relative to bulk water, at 0 ppm are generally highly shifted, either more than 6 ppm downfield or upfield (i.e., ±6 ppm or more), depending upon the properties of the central lanthanide ions. At 1.5 Tesla (T), a magnetic field strength presently used by many commercial MRI scanners, the exchange limit regimes, Δω•τM, of Eu(1)^3+, Tb(1)^3+, Dy(1)^3+, and Ho(1)^3+ are all greater than 1. At higher fields, however, such as 4.7 T and 11.75 T, more lanthanide complexes have exchange limit regimes greater than 1, with Δω•τM increasing as field strength increases. Therefore, favorable MT contrast effects are available for a broad range of lanthanide-macrocylic complexes over a broad range of magnetic field strengths.

[2] = Proton chemical shift of bound water of Ln(1)^3+ complexes relative to bulk water (1H NMR); conditions: relative to bulk water at 0 ppm
Description: as §2, with “strengths. […]” for “strengths.”

[3] = τM^298 from fit to bound-water 1H NMR line width
Description: as §1

[4] = 1H NMR spectra of Ln(9)^3+ complexes, exchangeable amide protons
Description: For certain Ln(9)^3+ complexes, for example, with Ln equal to Yb or Tm, the bound water molecules are ^1H NMR invisible probably due to the fast exchange between the bound water and the bulk water. […] Unfortunately, the NMR signal was invisible, probably due to its fast exchange with the bulk water. However, the eight exchangeable amide protons present as two resonance peaks with equivalent intensity, at −14.5 (Ha) and −17.7 (Hb) ppm, respectively, are visible.

[5] = MT profiles (Z-profiles, CEST profiles) of Ln(1)^3+ complexes at 4.7 T; conditions: for bound water position at which saturating RF pulse is directed: bulk water at 0 ppm, aqueous 62.5 mM, neutral pH, about 22° C.
Experimental: In a second experiment, MT profiles, also known as Z-profiles or CEST profiles, were obtained for lanthanide-macrocylic complexes of the general formula Ln(1)^3+. FIGS. 4-7 show representative spectra in the absence of saturation (bulk water peak at 0 ppm truncated to make the bound water peaks more visible) and MT profiles for Eu(1)^3+, Pr(1)^3+, Nd(1)^3+ and Yb(1)^3+ complexes, respectively, all measured at 4.7 T. All experiments were conducted using aqueous 62.5 mM Ln(1)^3+ adjusted to neutral pH and about 22° C., using an saturation duration time of 1 s, RF power of 16 db, and a 2.5 cm surface coil. […] Among these three complexes, Eu(1)^3+, shown in FIG. 4, had the greatest effect when the saturating pulse was centered at about 50 ppm (arrow): about a 60% decrease in the magnetization of bulk water, Ms, as compared to the magnetization of bulk water in the absence of a saturating pulse, Mo. Importantly, as indicated by a Ms/Mo of about 100%, when the counter-position (i.e., −50 ppm) was saturated, there was no distortion in the bulk water signal. Of course when the saturation pulse is directed to 0 ppm (arrow) there is no signal and therefore Ms/Mo is about 0%.

[6] = MT MR imaging of vial phantom with Ln(1)^3+ complexes at 4.7 T; conditions: saturating bound water, 62.5 mM, neutral pH
Experimental: A third series of experiments was performed to examine the ability of lanthanide-macrocylic complexes of the general formula Ln(1)^3+ to enhance MRI contrast by MT. […] The inner vial contains 62.5 mM Eu(1)^3+ or Nd(1)^3+ at neutral pH, while the outer vial is pure water. T1-weighted spin-echo images (TR/TE=500/18 ms, 256×256 data matrix) were obtained at about 22° C. and a field strength of 4.7 T. MT was achieved by applying RF irradiation for 1 s, with a power of 16 db by using a 2.5 cm surface coil. […] The inner vial contains 62.5 mM Nd(1)^3+ at neutral pH, while the outer vial is pure water. The irradiation duration time was 2 s, with a power of 41 db by using a 2.5 cm surface coil.
These levels of contrast are much better than expected for diamagnetic CAs where the resonance signal of the NH or OH group undergoing chemical exchange is only a few ppm away from the resonance signal of bulk water.

[7] = pH dependence of bound water and amide proton lifetimes τM^298 of Eu(2)^- by variable temperature 1H NMR line width fitting
Experimental: In a sixth series of experiments, the pH dependence of the bound water (FIG. 14) and the amide (FIG. 15) protons lifetimes, τM^298, were determined by variable temperature ^1H NMR line width fitting. The chemically exchangeable bound water and amide protons have different dependence on pH. For bound water protons, the slowest exchange, i.e., largest τM^298, takes place at pH 7 (FIG. 14). Moreover, the pH dependence may be divided into two linear ranges: an acidic range where τM^298=68.6*pH−172.5; and a basic range where τM^298=−128.2*pH+1212.6, respectively. For the amide protons, the slowest exchange is at pH 5.5 (FIG. 15).

[8] = 500 MHz 1H NMR spectrum of Eu(2)^- complex, exchangeable sites; conditions: aqueous, pH 7.4, 25° C.
Description: Two sites in the complex (denoted by the symbols *) are chemically exchangeable with bulk water (denoted by the symbol ? ): one is from Eu^3+-bound water at about 57 ppm, and another is from four equivalent amide protons on the pendent arms at about −6 ppm.

[9] = MT profiles of Eu(2)^- complex versus pH and saturation power; conditions: saturating bound water at about 57 ppm; 62.5 mM, 2 s, 41 db
Experimental: In a seventh experiment, MT profiles were obtained for 62.5 mM aqueous solutions of the Eu(2)^− lanthanide-macrocylic complex. A saturating RF pulse of 2 s at the resonance frequency of bound water or amide protons, with a power of 41 db, was applied to a 3.5 cm volume coil. […] The same set of data was plotted versus the bound water lifetime, τM^298, or the exchange limiting regime, Δω•τM, as shown in FIG. 17. The largest MT occurs for a Δω•τM ranging from about 12 to about 17, and optimally about 15.

Row | Compound | Δω●τM (exchange limit regime) ([1]; 1.5 T) | Δω●τM (exchange limit regime) ([1]; 4.7 T) | Δω●τM (exchange limit regime) ([1]; 11.75 T) | τM (bound water lifetime) [1] [μs] | δ, proton chemical shift of bound water [2] [ppm] | other results
1 | CCOC(=O)CNC(=O)CN1CCN(CC(=O)NCC(=O)OCC)CCN(CC(=O)NCC(=O)OCC)CCN(CC(=O)NCC(=O)OCC)CC1.[Yb+3] [Yb(1)^3+] | 0.2 | 0.5 | 1.9 | 3 | 200 | τM^298 of bound water [3]: 5.8 μs
2 | NC(=O)CN1CCN(CC(N)=O)CCN(CC(N)=O)CCN(CC(N)=O)CC1.[Tm+3] [Tm(9)^3+] | – | – | – | – | – | chemical shift of amide protons, first set (Ha) [4]: −42 ppm; chemical shift of amide protons, second set (Hb) [4]: −52 ppm
3 | CCOC(=O)CNC(=O)CN1CCN(CC(=O)NCC(=O)OCC)CCN(CC(=O)NCC(=O)OCC)CCN(CC(=O)NCC(=O)OCC)CC1.[Er+3] [Er(1)^3+] | 0.7 | 2.3 | 5.7 | 9 | 200 | –
4 | CCOC(=O)CNC(=O)CN1CCN(CC(=O)NCC(=O)OCC)CCN(CC(=O)NCC(=O)OCC)CCN(CC(=O)NCC(=O)OCC)CC1.[Sm+3] [Sm(1)^3+] | 0.5 | 1.6 | 4.0 | 320 | −4 | –
5 | CCOC(=O)CNC(=O)CN1CCN(CC(=O)NCC(=O)OCC)CCN(CC(=O)NCC(=O)OCC)CCN(CC(=O)NCC(=O)OCC)CC1.[Tb+3] [Tb(1)^3+] | – | 23.4 | 58.5 | 31 | −600 | Δω●τM (exchange limit regime) ([1]; 1.5 T, listed as Tb^3+): 7.5
6 | CCOC(=O)CNC(=O)CN1CCN(CC(=O)NCC(=O)OCC)CCN(CC(=O)NCC(=O)OCC)CCN(CC(=O)NCC(=O)OCC)CC1.[Tm+3] [Tm(1)^3+] | 0.6 | 1.9 | 4.7 | 3 | 500 | –
7 | CCOC(=O)CNC(=O)CN1CCN(CC(=O)NCC(=O)OCC)CCN(CC(=O)NCC(=O)OCC)CCN(CC(=O)NCC(=O)OCC)CC1.[Pr+3] [Pr(1)^3+] | 0.5 | 1.5 | 3.8 | 20 | −60 | bound water position at which saturating RF pulse is directed [5]: −45 ppm
8 | CCOC(=O)CNC(=O)CN1CCN(CC(=O)NCC(=O)OCC)CCN(CC(=O)NCC(=O)OCC)CCN(CC(=O)NCC(=O)OCC)CC1.[Ho+3] [Ho(1)^3+] | – | 8.6 | 21.5 | 19 | −360 | Δω●τM (exchange limit regime) ([1]; 1.5 T, listed as Ho^3+): 2.8
9 | CCOC(=O)CNC(=O)CN1CCN(CC(=O)NCC(=O)OCC)CCN(CC(=O)NCC(=O)OCC)CCN(CC(=O)NCC(=O)OCC)CC1.[Dy+3] [Dy(1)^3+] | – | 15.4 | 38.5 | 17 | −720 | Δω●τM (exchange limit regime) ([1]; 1.5 T, listed as Dy^3+): 4.9
10 | CCOC(=O)CNC(=O)CN1CCN(CC(=O)NCC(=O)OCC)CCN(CC(=O)NCC(=O)OCC)CCN(CC(=O)NCC(=O)OCC)CC1.[Nd+3] [Nd(1)^3+] | 1.0 | 3.2 | 8.0 | 80 | −32 | decrease in the bulk water signal in the inner vials (MT images) [6]: ~80%
11 | O=C([O-])CNC(=O)CN1CCN(CC(=O)NCC(=O)[O-])CCN(CC(=O)NCC(=O)[O-])CCN(CC(=O)NCC(=O)[O-])CC1.[Eu+3] [Eu(2)^−, LnDOTA-4AmC^−] | – | – | – | – | – | pH of slowest exchange (largest τM^298), bound water protons [7]: 7; pH of slowest exchange, amide protons [7]: 5.5; exchange limiting regimes (Δω•τM), bound water and amide protons ([7]; magnetic field strength of 4.7): > 1; chemical shift of Eu^3+-bound water [8]: about 57 ppm; chemical shift of four equivalent amide protons on the pendent arms [8]: about −6 ppm; optimal Δω•τM for largest MT [9]: about 15
12 | CCOC(=O)CNC(=O)CN1CCN(CC(=O)NCC(=O)OCC)CCN(CC(=O)NCC(=O)OCC)CCN(CC(=O)NCC(=O)OCC)CC1.[Eu+3] [Eu(1)^3+] | – | 24.0 | 60.0 | 382 | 50 | decrease in the bulk water signal in the inner vials (MT images) [6]: ~80%; bound water position at which saturating RF pulse is directed [5]: +50 ppm; decrease in the magnetization of bulk water, Ms, compared to Mo ([5]; saturating pulse at about 50 ppm, 62.5 mM, 1 s, 16 db): ~60%; Ms/Mo when counter-position saturated ([5]; saturation at −50 ppm, 62.5 mM): about 100%; Δω●τM (exchange limit regime) ([1]; 1.5 T, listed as Eu^3+): 7.7
